Assay results from paper PMC11820896, “New Compounds with Enhanced Biological Activity Through the Strategic Introduction of Silylated Groups into Hydroxystearic Acids” (Molecules, 2025).
Where two headings read alike, the source gives them in different places.

Experiments:
HT29 cells [1] = test: Cell cycle analysis by flow cytometry (PI); format: cell-based, human; details: 50 nM, 24 h
Procedure: HT29 cells were treated with compound 4 for 24 h and then detached with 0.11% trypsin/0.02% ethylenediaminetetraacetic acid (EDTA) (Sigma-Aldrich, St. Louis, MO, USA), washed in PBS, and centrifuged. Cells were stained and analyzed according to […] al..

U2OS = test: MTT assay, U2OS cells; format: cell-based; details: Homo sapiens, means of four experiments, na = not active, read-out: In vitro cytotoxic activity (IC50), U2OS
Procedure: (§1) The human colorectal adenocarcinoma (Caco-2), human colorectal adenocarcinoma (HT29), normal human intestinal (I407), human cervical cancer (HeLa), human breast cancer (MCF7), human bone osteosarcoma (U2OS), and human acute T-cell leukemia (Jurkat J6) cell lines were purchased from American Type Culture Collection (ATCC, Manassas, VA, USA). Cells were cultured in RPMI 1640 medium (Labtek Eurobio, Milan, Italy), supplemented with 10% FCS (Euroclone, Milano, Italy) and 2 mM L-glutamine (Sigma-Aldrich, Milano, Italy), at 37 °C and in a 5% CO2 atmosphere. The compounds were dissolved in DMSO in a 30–40 mM stock solution. In cell treatments, the final DMSO concentration never exceeded 0.1%.
(§2) Cells were seeded in a 96-well culture plastic plate (Sarsted, Milan, Italy), at 5 × 10^4 cells/well and, after 24 h, were exposed to increasing concentrations of the different compounds (from 1 nM to 500 nM) dissolved in RPMI 1640 medium. An MTT assay was performed according to Micheletti et al..
(§3) The absorbance at 570 nm was measured using a multi-well plate reader (Tecan, Männedorf, Switzerland), and data were analyzed by Prism GraphPad 8 software and expressed as IC50 nM.

[2] = system: human tumor cell lines (HT29, MCF-7, HeLa, U2OS, and J6); test: Antiproliferative activity in the series of human tumor cell lines; format: cell-based; details: MTT; concentration range of 10–500 nM
Procedure: as §1, §2, §3

HT29 = test: MTT assay, HT29 cells; format: cell-based, human; details: for IC50: Homo sapiens, HT-29, means of four experiments
Procedure: as §1, §2, §3

J6 = test: MTT assay, Jurkat J6 cells; format: cell-based; details: Homo sapiens, means of four experiments, na = not active, read-out: In vitro cytotoxic activity (IC50), J6
Procedure: as §1, §2, §3

SCD1 [3] = test: SCD1 mRNA expression, qRT-PCR; format: cell-based, human; details: after 24 h, HT29
Procedure: Total RNA from control- and 4-treated HT29 cells was isolated using the RNeasy Mini Kit (Qiagen, Hilden, Germany) according to the manufacturer's protocol. RNA was quantified using the NanoDrop spectrophotometer (Thermo Fisher Scientific, Waltham, MA, USA). RNA (1 μg) was transcribed into cDNA using the PrimeScript RT Master Mix (Perfect Real Time) (Takara Bio, Kusatsu, Japan) according to the manufacturer's instructions. Real-time PCR was performed using the Sybr Premix Ex Taq Takara kit (Takara Bio, Kusatsu, Japan) and the LightCycler 2.0 instrument (Roche Diagnostic, Basel, Switzerland). The following primers (Sigma-Aldrich, Milan, Italy) were used: [NT] (forward) and [NT] (reverse) for FASN detection, [NT] (forward) and [NT] (reverse) for SCD1 detection, and [NT] (forward) and [NT] (reverse) for the detection of β-actin. The first gene analyzed was the housekeeping gene β-actin, and its CT values were used as standards in the ΔΔCT method of result analysis. cDNA samples from HT29-treated cells were compared with untreated control cells.

HT29 cells [4] = test: ROS assay (DClFDA staining); format: cell-based, human; details: 24 h treatment
Procedure: ROS were detected by DClFDA staining. This probe is not fluorescent and is permeable to alive cells, where the acetometoxyesther is cleaved by the […] intracellular estherases. This product is made fluorescent by the concomitant action of ROS, which peroxidize the molecule. The intensity of the fluorescence is, therefore, proportional to the production of intracellular ROS. HT29 cells were grown on a 96-well black plate, treated for 24 h with 4, washed in Hanks’ buffer, stained with 2 µM DClFDA, and incubated at 37 °C in the dark for 30 min. Negative controls were treated in the same way, but DClFDA was not added to these samples. The cells were washed in fresh Hanks’ buffer and resuspended in Hanks’ buffer containing Hoechst 33342 1 µg/mL to stain cell nuclei, to evaluate the cell density in the wells. The fluorescences were read with the plate reader Ensight (Perkin Elmer, Waltham, MA, USA) with excitation wavelengths, respectively, 488 nm for DClF and 360 nm for Hoechst and emission wavelength 535 nm for DClF and 454 for Hoechst 33342. The intensity of DClF fluorescence was normalized on Hoechst fluorescence and is expressed in Arbitrary Units (AU).

HT29 cells [5] = test: Neutral lipid staining (LipidTOX), confocal microscopy; format: cell-based, human; details: 50 nM, 48 h
Procedure: HT29 cells were grown on glass coverslips, treated as described above, and then washed three times with PBS. The intracellular accumulation of neutral lipids was assessed using LipidTOX™ Red Neutral Lipid Dye (Thermo Fisher Scientific, Waltham, MA, USA) according to the manufacturer’s indications. Specimens embedded in Mowiol were analyzed by confocal microscopy using a Nikon C1si confocal microscope (Nikon, Tokyo, Japan). Fluorescence was excited with a laser tuned at 595 nm, and detected at 650 nm.

SCD1 [6] = test: SCD1 protein, Western blot; format: cell-based, human; details: 50 nM, 48 h, HT29
Procedure: HT29 cells were seeded at a density of 5.0 × 10^4 cells/cm^2 in a Petri dish and treated with 50 nM of compound 4 for 48 h. Cells were then washed with PBS and incubated with the lysis buffer radio immunoprecipitation assay (RIPA) at 4 °C for 15 min with agitation. The proteins were quantified using the Bio-Rad protein assay (Bio-Rad, Hercules, CA, USA) and analyzed by SDS-PAGE and Western blot.
For the analysis of protein phosphorylation, protein samples (30 μg) were separated on 12% SDS-PAGE in Tris-glycine buffer by electrophoresis at 200 V for 1 h. […] Densitometric analysis was performed with ImageLab 6.1 software (Bio-Rad, Hercules, CA, USA), and bands were normalized to the respective total protein content. For SCD1 analysis, protein samples were resolved on a 10% gel in MOPS buffer at 200 V for 45 min. After electrophoresis and Western blot, the nitrocellulose membrane was incubated overnight at 4 °C with primary antibody anti-SCD1 (Biorbyt, Durham, NC, USA) diluted in PBS-TWEEN 20 0.1%. The membrane was incubated for 1 h with a secondary horseradish peroxidase-conjugated antibody (GE Healthcare, Chicago, IL, USA) and then detected as described above. Quantification was completed by a Fluor-S Max MultiImager (Bio-Rad, Hercules, CA, USA) using a β-tubulin signal as a control.

## CCCCCCCCC[C@H](CCCCCCCC(=O)O)O[Si](C)(C)C(C)(C)C [Compound 4, (R)-9-((tert-butyldimethylsilyl)oxy)octadecanoic acid]
HT29 cells [1]
  decrease in G2/M phase: 80.3 ± 6.1%
  decrease in S phase: 66.4 ± 8.9%
  increase in the G0/G1 phase: 41.8 ± 0.2%
U2OS
  IC50: 36.81 ± 0.18 nM
[2]
  antitumor activity across all cell lines tested: showed antitumor activity
HT29; MTT after 24 h of treatment, read-out: IC50 nM, HT29 (Table 2)
  IC50: 20.9 ± 0.21 nM
HT29; MTT, na = not active, read-out: In vitro cytotoxic activity (IC50), HT29
  IC50: 20.3 ± 0.24 nM
HT29; versus normal I407 cells
  S.I. (Selective Index), HT29: 2.96
J6
  IC50: 214.1 ± 0.26 nM
SCD1 [3]
  SCD1 gene expression: decreases
HT29 cells [4]
  change in ROS content: does not lead to a change
HT29 cells [5]
  accumulation of lipid droplets (neutral lipids): significantly reduces
SCD1 [6]
  SCD1 protein amount: decrease in the amount of its protein product
